From patent EP2818477B1, “L-LYSYL-L-GLUTAMYL-L-TRYPTOPHAN FOR CORRECTING METABOLIC SYNDROME” (Obshestvo S Organichennoj Otvetstvennostju "CytoNIR", priority 2012, dated 2016)
Where two headings read alike, the source gives them in different places. Marks after values point to notes of the source that are not given here. Where a SMILES comes first, the peptide text is derived from it.

Legend:
[1] = Hyperlipidaemia induced by polyoxyethylene sorbitan monooleate (polysorbate-80) in rats, serum lipids; assay type: in vivo, Ratten; settings: blood serum 24 h after polysorbate-80 300 mg/kg i.p.
Procedure: Die Versuche wurden an 51 Outbred-Ratten-Männchen der Linie Sprague-Dawley mit Körpergewicht von 220 - 240 g durchgeführt.
Die untersuchten Peptide wurden täglich in einer Tagesdosis von 20 und 200 µg/kg in den Magen im Laufe von 5 Tagen bis Hyperlipidämie-Ansatz verabreicht. Als Vergleichspräparat wurde ein Präparat gegen Hyperlipidämie aus der Gruppe von Fibric-Säure-Derivaten oder Fibraten - Bezafibrat (2-(b-parachlorobenzoyl-aminoethyl)phenoxy-2-methylpropinsäure) in der Dosis 50,0 mg/kg verwendet.
Die Hyperlipidämie wurde bei Ratten mittels intraperitonealer Einführung von Polyoxyethylen-sorbitan-monooleat (Polysorbat-80, Mischung von Polyäthylen-glykol-Esteren von Anhydrosorbit Monooleat) in einer Dosis von 300 mg/kg verabreicht. 24 Stunden später wurden die Ratten eingeschläfert. Danach wurden Triglyzeridspiegel, Gesamtcholesterin und Lipoproteid-Cholesterin mit hoher Dichte (HDL) im Blutserum der Tiere gemessen.
Infolge der Untersuchung der spezifischen pharmakologischen Aktivität wurde Folgendes festgestellt. Im Hintergrund der durch Polyoxyethylen-sorbitan-monooleat verursachten Hyperlipidämie üben Peptide eine hypolipidämische Wirkung aus. Das zeigt sich durch Senkung des Triglyzeridspiegels, des Gesamtcholesterinspiegels sowie durch Steigerung des HDL-Cholesterins im Blut (Tabelle 1) an. Tabelle 1

[2] = Alloxan diabetes in rats, blood glucose and response to insulin; assay type: in vivo, Ratten
Procedure: Bekanntlich ist Alloxan-Diabetes durch Schädigung der ß-Zellen von Pankreas gekennzeichnet und wird von ausgeprägter Hyperglykämie infolge eines Insulinmangels und einer Aktivierung von Glukoneogenese begleitet.
Der Versuch wurde an 18 weißen Outbred-Ratten-Männchen mit einem durchschnittlichen Körpergewicht von 349 ± 19 g durchgeführt. Nach der Ermittlung von Glukosekonzentration im Blut wurden alle Tiere in 2 Gruppen aufgeteilt. Danach erhielten alle Tiere einmalig intravenös je 1 ml Alloxanlösung ("Spofa") in einer Dosis von 35 mg/kg. 15 Tage danach wurde den Tieren aus der Referenzgruppe je 0,3 ml der 0,9 %igen NaCl-Lösung einmal täglich intraperitoneal verabreicht. Die Ratten aus der Hauptgruppe wurden mit Tripeptid Lys-Glu-Trp-NH2 in einer Dosis von 3 µg (in 0,3 ml der 0,9 %igen NaCl-Lösung) pro Ratte innerhalb von 11 Tagen behandelt. Eine separate Gruppe bestand aus 7 gesunden Ratten mit einem ähnlichen Körpergewicht.
Danach wurde allen Tieren Insulin (0,3 ME) intravenös verabreicht und die Glukosekonzentration im Blut gemessen.

[3] = assay type: in vivo; settings: 500 µg oral twice daily for 30 days
Description: Die Untersuchung bezog sich auf Patienten mit einer verifizierten Diagnose eines metabolischen Syndroms. Die Diagnose wurde bei Erfüllung folgender Kriterien gestellt: arterielle Hypertension, gestörte Glukosetoleranz, Fettsucht, Dyslipidämie. Es wurden insgesamt 85 Patienten mit metabolischem Syndrom (50 Frauen, 35 Männer) untersucht. Das durchschnittliche Alter betrug bei den Männern 54,6 ± 12 Jahre, bei den Frauen 55,6 ± 13,0 Jahre.
Kriterien für die Einbeziehung der Patienten in die Forschung: • 1. Alter: Älter als 45 Jahre für Männer und Frauen. • 2. Vorhandensein von klinischen Merkmalen eines metabolischen Syndroms. • 3. Vorhandensein von verifizierter Pathologie des Magen-Darm-Kanals (Verstopfungen, Reizdarmsyndrom, Cholezystitis, Pankreatitis, Fettleber). • 4. Zustimmung des Patienten.
Die Kriterien für den Ausschluss der Kranken aus der Untersuchung waren das Vorhandensein von familiärer Dyslipidämie, akuter Pathologie des Magen-Darm-Kanals, Merkmalen der Helmintheninvasion und onkologischer und systematischer Pathologie.
Die Kombination der angewandten pathogenetischen Therapie unter Einsatz solcher Mittel wie ACE-Hemmer, Ca2^+-Kanal-Blocker, harntreibende Mittel, β-Blocker und deren Dosierung wurde aufgrund klinischer Indikationen festgelegt. Bei der Untersuchung wurden auch die mit Nitropräparaten sowie mit Statinen behandelten Kranken ausgeschlossen. Alle Kranken wurden einer hypocholesterinämisierenden Diät unterzogen, die eine Einnahme von Kleie einschließt.
Tripeptid Lys-Glu-Trp-NH2 wurde 47 Patienten oral in einer Dosis von 500 µg pro Gabe zweimal täglich im Laufe von 30 Tagen verabreicht. Die Unterbrechung zwischen den Behandlungen betrug 2 Monate.
Die Kranken wurden im Laufe von 12 Monaten beobachtet. Die Untersuchung umfasste 3 Phasen: Ursprungsphase (zum Zeitpunkt der Diagnoseüberprüfung), 6 Monate und ein Jahr später.
Folgende Parameter wurden bei allen Kranken analysiert: Geschlecht, Alter zum Zeitpunkt der Untersuchung, Krankheitsdauer, Dauer der arteriellen Hypertension, Fettsucht, Dyslipidämie. Die Untersuchung der Kranken umfasste eine Einschätzung der Risikofaktoren, wie z. B. Vererbung, Fettsucht, Zuckerkrankheit, koronare Herzkrankheit. Dabei wurde eine Sozialanamnese, d. h. Besonderheiten des Lebensstils, Ernährungsgewohnheiten, analysiert. Es wurden auch anthropometrische Messungen durchgeführt: Wuchs, Körpergewicht, Body-Maß- Index. Alle Kranken wurden einer planmäßigen Laboruntersuchung unterzogen und zwar: klinische Blutanalyse und Untersuchung von biochemischen Blutkennwerten. Es wurden Hämoglobingehalt, Erythrozytenmenge, Leukozyten-gehalt, Lymphozytengehalt ermittelt. Unter den biochemischen Serumkennwerten wurden Gesamteiweißgehalt, Albumine, Triglyzeridspiegel, Cholesterinspiegel, LDL, HDL, LDL/HDL-Verhältnis ermittelt. Die durchgeführten Instrumentenunter-suchungen umfassten Zuckerbelastungstest, Abdomen-Sonographie, Stuhluntersuchungen, Schilddrüsenfunktionsprüfung (Hormonstatus).

[4] = Alimentary atherogenic dyslipoproteinaemia (hypercholesterolaemic diet, 24 days) in rats, serum lipids; assay type: in vivo, Ratten; settings: 100 µg/kg i.p. daily
Description: Der Versuch wurde an 40 weißen Ratten-Männchen der Wistar-Linie mit einem Körpergewicht von 230 - 250 g durchgeführt. Die Tiere wurden in 4 Gruppen aufgeteilt. Gruppe 1: Referenzgruppe (Intakt), Gruppen 2 bis 4: Versuchsgruppen.
Die Versuchstiere wurden auf hypercholesterinämische (HCÄ) Diät gesetzt, um eine alimentäre atherogene Dyslipoproteinämie (DLP) zu modellieren. Die HCÄ- Diät umfasste mind. 7,5 % Cholesterin (CS), 45 % Fette und einen Überschuss an Vitamin D2 (500 000 IE). Gleichzeitig mit der Entwicklung von DLP erhielt die 3. Gruppe von Tieren Lys-Glu-Trp in einer Dosis von 100 µg/kg intraperitoneal täglich. Die 4. Gruppe von Tieren erhielt Lipanthyl 25 mg/kg intraperitoneal Lipanthyl 200M der Fa. Lab.Fournier S.A. (Frankreich) oder Fenofibrate, die zur Behandlung von Hyperlipoproteinämie verwendet werden, die sich mit keiner Diät mehr behandeln lässt. Der Versuch dauerte 24 Tage. […] Sie waren wohlgenährt und hatten glattes glänzendes Fell. Die Tiere aus der 2. Gruppe hatten zerzaustes Fell und zeigten Übererregbarkeit, was durch einen Überschuss an Vitamin D2 erklärt werden kann.
Nach dem Versuchsende wurde eine Dekapitation der Tiere vorgenommen. Danach wurden der Gesamt-Cholesterinspiegel (CS), Triglyzeridspiegel (TG), Cholesteringehalt der Lipoproteine hoher Dichte (CS HDL) im Blutserum der Tiere beurteilt und die Cholesterin-Konzentration der Lipoproteine niedriger Dichte (CS LDL) sowie der Cholesterin-HDL Quotient (LDL/HDL-Verhältnis) berechnet. Die genannten Kennziffern sind der Tabelle 2 zu entnehmen. Tabelle 2
Bei der Beurteilung wurden der Zustand und das Gewicht von Leber, Milz und Nebennieren berücksichtigt.

[5] = 20 µg/kg daily into the stomach for 5 days
[6] = 200 µg/kg daily into the stomach for 5 days
[7] = 3 µg per rat i.p. for 11 days, 30 min after insulin 0,3 ME i.v.

For `NCCCC[C@H](N)C(=O)N[C@@H](CCC(=O)O)C(=O)N[C@@H](Cc1c[nH]c2ccccc12)C(N)=O` [Lys-Glu-Trp-NH2] (H-Lys-Glu-Trp-NH2), the Gesamtcholesterin [1, 5] was 1,69±0,15 mMol/l, the “HDL- Cholesterin” value [1, 5] was 1,05±0,02 mMol/l and the Triglyzeridspiegel [1, 5] was 0,76±0,14 mMol/l. The Gesamtcholesterin [1, 6] was 1,22±0,15 mMol/l, the “HDL- Cholesterin” value [1, 6] was 1,09±0,02 mMol/l and the Triglyzeridspiegel [1, 6] was 0,88±0,12 mMol/l. For the same molecule, the “Nebenwirkungen, Komplikationen, Arzneiabhängigkeit” value ([2]; 3 µg per rat i.p. for 11 days) was “keine Nebenwirkungen, Komplikationen und keine Arzneiabhängigkeit”, the “Glukosekonzentration im Blut (mg %) Ausgangsspiegel” value ([2]; 3 µg per rat i.p. for 11 days, starting 15 days after alloxan 35 mg/kg i.v., before insulin) was 221,5±11,2 mg % and the “Glukosekonzentration im Blut (mg %) 30 Minuten nach Insulineinführung” value [2, 7] was 123,6±8,3 mg %. For the same molecule, the “Senkung von Glukosespiegel im Vergleich zum Ausgangsspiegel (%)” value [2, 7] was 44,2%, the “Senkung des Glukosespiegels im Blut” value ([2]; day 28 of the study, on average, 3 µg per rat i.p. for 11 days) was 34,8% and the Letalität ([2]; main group, 3 µg per rat i.p. for 11 days) was “Senkung der Letalität”. For the same molecule, the “Glukosespiegelsenkung nach der Insulineinführung gegenüber der Vergleichsgruppe” value ([2]; versus alloxan diabetes + NaCl group) was “fast zweimal größere Glukosespiegelsenkung”, the Cholesterin-Konzentration ([3]; 2 months between courses, 12 months observation, with basic therapy, Fig. 1) was “zur Cholesterin-Konzentrationssenkung beitrug” and the “Konzentration der Lipoproteine mit hoher Dichte” value ([3]; in complex therapy) was “Konzentrationssteigerung der Lipoproteine mit hoher Dichte”. The “drucksenkender Effekt” value ([3]; in complex therapy) was “schnelleren und stabileren drucksenkenden Effekt”, the LDL/HDL-Verhältnis ([3]; with basic therapy, Fig. 3) was “ausgeprägte Verminderung des LDL/HDL-Verhältnisses” and the “Konzentration der Triglyzeride” value ([3]; 3rd examination after one year, Fig. 2) was “maximale Konzentrationssenkung der Triglyzeride”.
In the case of `NCCCC[C@H](N)C(=O)N[C@@H](CCC(=O)O)C(=O)N[C@@H](Cc1c[nH]c2ccccc12)C(=O)O` [Lys-Glu-Trp, L-Lysyl -L-Glutamyl-L-Tryptophan] (H-Lys-Glu-Trp-OH), the “HDL- Cholesterin” value [1, 5] is reported as 0,97±0,04 mMol/l, the Triglyzeridspiegel [1, 5] is reported as 0,58±0,05 mMol/l and the Gesamtcholesterin [1, 6] is reported as 2,10±0,17 mMol/l. The “HDL- Cholesterin” value [1, 6] was 0,60±0,02 mMol/l, the Triglyzeridspiegel [1, 6] was 0,67±0,05 mMol/l and the “Wirkung auf das relative Gewicht von Leber, Milz und Nebennieren” value ([4]; HCÄ diet 24 days) was “keine ungünstige Wirkung”. The Triglyzeridspiegel ([4]; HCÄ diet 24 days, blood serum) was 0,96±0,16 mMol/l, the “Aussehen der Tiere” value ([4]; during the 24-day experiment) was “normgerechtes Aussehen” and the “CS LDL” value ([4]; calculated, HCÄ diet 24 days) was 0,71±0,24 mMol/l. For the same molecule, the LDL/HDL-Verhältnis ([4]; calculated, HCÄ diet 24 days) was 2,21±0,58* * and the CS ([4]; total cholesterol, HCÄ diet 24 days, blood serum) was 1,70±0,27* * mMol/l.
With `CC(C)(Oc1ccc(CCNC(=O)c2ccc(Cl)cc2)cc1)C(=O)O` [Bezafibrat, 2-(b-parachlorobenzoyl-aminoethyl)phenoxy-2-methylpropinsäure] the Gesamtcholesterin ([1]; 50,0 mg/kg (comparator)) was 1,34±0,03 mMol/l, the “HDL- Cholesterin” value ([1]; 50,0 mg/kg (comparator)) was 0,98±0,05 mMol/l and the Triglyzeridspiegel ([1]; 50,0 mg/kg (comparator)) was 0,55±0,06 mMol/l.
